Measurements: patent US20260224559A1, “FORMULATIONS FOR TREATING CANCER” (FOGHORN THERAPEUTICS INC., priority 2023, published 2026)

How the values were obtained:
[1] = Particle size analysis of Compound A nanosuspension / microsuspension formulations; assay type: physicochemical; details: jet mill feed pressure 4.5 bar, milling pressure 5.0 bar, before ball milling
Method: Milling was performed in a high energy ball mill with suitable sized-spherical, polymeric or Zirconium oxide beads. Compound A and excipient(s) as indicated in Table 1 were combined in deionized water per the indicated batch size and transferred to the milling chamber. Nanosuspensions A through D were generated utilizing process conditions denoted in Table 2.
Compound A was first mechanically jet-milled to reduce initial particle size prior to ball milling. The jet mill feed pressure was 4.5 bar and milling pressure was 5.0 bar. The resulting particle size of jet milled Compound A was 5-6 microns […]. […]
Compound A in a concentration range of between about 20 mg/mL to about 100 mg/mL (2-10% w/w), along with parenteral grade olive oil and 1% sorbitan monooleate [SPAN®80], was nano-milled using a high energy mill at 3000 rpm with 0.3 mm beads or 0.65 mm beads to produce microsuspensions. […] Performance of an amorphous microsuspension of Compound A was evaluated in Male SD rats. […] At each time point, approximately 0.2 mL blood was collected via jugular vein and analyzed by LC-MS/MS for mean plasma concentration of Compound A (FIG. 4). Pharmacokinetics determined that a target Cmin of 3 ng/mL was desired, which is denoted by the black dashed line in FIG. 4. […]

[2] = system: SYO-1 human biphasic synovial sarcoma tumor cells; experiment: Nanosuspension mouse efficacy study, SYO-1 xenograft tumor volume; assay type: in vivo; details: SYO-1 xenograft mice, Cohorts 2-8, IV, SC, IM, 1-200 mg/kg, over 4 weeks, FIG. 3B
Method: (§1) Each mouse was inoculated subcutaneously on the right flank with a single cell suspension of SYO-1 human biphasic synovial sarcoma tumor cells (5×10^6) in 100 μL DMEM with 10% FBS for the tumor development. Treatment (Table 6) was started when mean tumor volume reached about 100-150 mm^3 for the efficacy cohorts. Based on the tumor volume, mice were randomly assigned to respective groups using a computer-generated randomization procedure. Corresponding formulations are in Table 6. For each dosing cohort, dosing volume was calculated based on concentration of the formulation and dose volume (ml/kg). Vehicle for IV was 20% HP-β-CD in 5 mM citrate buffer of pH 3, with adjustment to a final PH of 5. Body weight of all animals was measured and recorded twice a week throughout the study. The measurement of tumor size was conducted twice a week with a caliper and recorded. Tumor volume was used for calculation of tumor growth inhibition (TGI) value of the tumors in the treated and the control cohorts, respectively, on a given day after tumor inoculation.
64 plasma samples were collected at two time points (672 h and 676 h) from efficacy study cohorts. 64 tumor samples were collected at two time points (672 h and 676 h) from efficacy cohorts 1-8 and cut into 3 pieces: one piece for PK analysis, one piece for WB analysis (BRD9), and one piece snap frozen for further analysis (n=4). […]

[3] = Body weight / tolerability in mouse efficacy study; assay type: in vivo; details: tumor-bearing mice, all doses and all modes of administration, 4 weeks, FIG. 3A
Method: as §1

SMILES: COc1cc(-c2cn(C)c(=O)c3cnc(N4CCC4)cc23)cc(OC)c1CN1CCC(CN2CCC3(CC2)CN(c2ccc4c(c2)C(=O)N(C2CCC(=O)NC2=O)C4)C3)CC1 (stereo not drawn) [Compound A, 3-(6-(7-((1-(4-(6-(azetidin-1-yl)-2-methyl-1-oxo-1,2-dihydro-2,7-naphthyridin-4-yl)-2,6-dimethoxybenzyl)piperidin-4-yl)methyl)-2,7-diazaspiro[3.5]nonan-2-yl)-1-oxoisoindolin-2-yl)piperidine-2,6-dione]
- particle size (D50) of jet milled Compound A [1]: 5-6 microns
- tumor growth (tumor volume) versus Vehicle control [2]: slowed tumor growth significantly
- body weight [3]: remaining fairly constant
